Measurements reported in BindingDB's records for doi:10.1021/bi301387m (University of Auckland, 2013).
pKi: −log10 of the molar value.

Biological target: T1, Anthranilate phosphoribosyltransferase (Mycobacterium tuberculosis (strain CDC 1551 / Oshkosh), UniProt P9WFX4)
T1 sequence (P9WFX4 whole entry): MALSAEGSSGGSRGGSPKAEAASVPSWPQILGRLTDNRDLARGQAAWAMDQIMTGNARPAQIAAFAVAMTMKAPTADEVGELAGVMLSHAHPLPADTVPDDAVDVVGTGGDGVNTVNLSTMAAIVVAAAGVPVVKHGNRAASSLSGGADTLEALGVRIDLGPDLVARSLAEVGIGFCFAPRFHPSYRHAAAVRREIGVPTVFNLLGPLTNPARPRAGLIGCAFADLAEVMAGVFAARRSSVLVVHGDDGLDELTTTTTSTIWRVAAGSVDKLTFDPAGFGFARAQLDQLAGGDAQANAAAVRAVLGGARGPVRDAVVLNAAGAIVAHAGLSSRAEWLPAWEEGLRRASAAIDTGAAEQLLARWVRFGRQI
Assay: Fluoresence-based Assay
Source text: An enzyme-coupled absorbance-based assay developed in house was used to determine the inhibitor-enzyme kinetic parameters of Mtb-AnPRT, including ki values for the inhibitors.

Row | Structure (SMILES) | pKi
1 | COc1ccc(C(=O)O)cc1N [ACS No 126] | 4.22
2 | NC(CCCNc1ccc([N+](=O)[O-])cc1[N+](=O)[O-])CC(=O)O (configuration not stated) [ACS No 165] | 4.10
